These results are taken from patent publication US20070184082A1, “Biocompatible polymeric delivery systems for sustained release of quinazolinones” (priority 2004, published 2007).

The subject of one data set is healthy male volunteers. Briefly: Phase I clinical study of safety of oral halofuginone, three dosing regimens. It counts as in vivo, human. As for the experimental part: The Phase I clinical study described below was conducted in the PPD Development Clinical Pharmacology Unit, 72 Hospital Close, Evington, Leicester, United Kingdom, between September 2001 and October 2001. The objective of this study was to compare the safety and tolerability of halofuginone when a daily dose of 2 mg is administered using three different dosing regimens.
A single-center, open label, three-period, phase I study was performed. Eight subjects attended the PPD Development Clinic for pre-study screening […]. Visits at the Clinic were as follows:
Subjects were admitted to the Clinic on the evening of Day-1. After an overnight fast, subjects received an oral dose of 0.25 mg halofuginone with a standard snack. Each subject received a total of eight doses at 3-hour intervals starting at approximately 10:00 h on Day 1, and remained resident in the Clinic until the morning of Day 3 [after the 24 hour pharmacokinetic (PK) sample]. They returned to the Clinic for an out-patient visit on the morning of Day 4 to provide a PK blood sample. There was a washout of at least 6 days after the last dose in Period 1 before the start of dosing in Period 2.
Subjects were admitted to the Clinic at approximately 07:00 h on Day 1. Subjects were provided with breakfast and then fasted until the first dose. Subjects received an oral dose of 0.5 mg halofuginone with a standard meal at 6-hour intervals starting at approximately 13:00 h (a total of four doses) and remained resident in the Clinic until the morning of Day 3 (after the 24 hour PK sample). They returned to the Clinic for an out-patient visit on the morning of Day 4 to provide a PK blood sample. There was a washout of at least 6 days after the last dose in Period 2 before the start of dosing in Period 3.
Subjects were admitted to the Clinic on the evening of Day-1. After an overnight fast, subjects received a single oral dose of 2 mg halofuginone with breakfast at approximately 07:00 h on Day 1 and remained resident in the Clinic until the morning of Day 2 (after the 24 hour PK sample). They returned to the clinic for an out-patient visit on the morning of Day 3 to provide a PK blood sample.
Adverse events (AEs) were monitored throughout the study period. Vital signs (including blood pressure, pulse rate and oral body temperature), electrocardiogram (ECG), physical examinations and routine laboratory safety analyses were conducted at the pre-study screening and at the post-study follow-up visits.
Eight healthy male Caucasian subjects were enrolled into the study. The mean age was 31.1 years (range 19-39 years), mean height was 176.6 cm (range 169-184 cm), mean weight was 78.9 kg (range 62.7-91.7 kg) and mean BMI was 25.2 kg/m^2 (range 21.9-27.9 kg/m^2). All subjects completed the study.

The next data set can be described thus: clinical. Conditions: human, in vivo, po, 2 mg. As for the experimental part: The present interim pharmacokinetic analysis was carried out by ASTER. Patients included were treated for solid tumour. On study Day 1 each patient received one oral dose of halofuginone, either 1 mg (one patient) or 2 mg (6 patients), and blood samples for pharmacokinetics were collected up to 72 hours (3 days) after dosing. Immediately after the collection of the 72 hour blood sample, patients started the multiple dose regimen consisting in morning daily dose administration of 1 mg (for subject No.1) or 2 mg (6 remaining patients) until study Day 15. Urine samples were collected over 48 hours after first dosing. Urine concentrations were only available for patients No.1, No.2, No.3 and No.4, and thus only 4 patients were included in the analysis of urine excretion data.

For the next data set, the system named is humans. Put plainly: Maximum tolerated oral dose of halofuginone in humans. The note with it: oral administration.

Molecules are shown by their SMILES.

For the compound `O=C(CC1NCCCC1O)Cn1cnc2cc(Br)c(Cl)cc2c1=O` (centres unmarked) [halofuginone, 7-bromo-6-chloro-3-[3-(3-hydroxy-2-piperidinyl)-2-oxopropyl]-4(3H)-quinazolinone], the tolerability conclusion result in the data set on healthy male volunteers (2 mg given as eight doses of 0.25 mg with a snack or 4 doses of 0.5 mg with a meal) is “safe and well tolerated”. Also, the “treatment-emergent AEs considered moderate in severity” value in the data set on healthy male volunteers (human, in vivo) is given as “two”. In the data set on healthy male volunteers (male, human, in vivo), the “headache AEs” value is listed as 3 AEs; the “nausea AEs” value came to 13 AEs; the “time to resolution of all vomiting AEs and most nausea AEs” value was 1 h and 0.717 h; the “total AEs reported” value was 29. Besides, in the data set on healthy male volunteers (male, human, in vivo), the “treatment-emergent AEs” value is 28 and the “treatment-emergent AEs considered mild” value worked out at 26. Further, the tolerability conclusion result in the data set on healthy male volunteers (single dose of 2 mg with a meal) is reported as “less well tolerated”. The compound also gave a half-life in “clinical” of 37.2 h. For the same compound, the “maximum tolerated dose with no adverse effects observed” value in the data set on humans is 1 mg/day.

As usually defined, the half-life is the time in which the quantity being followed falls by half. A low value points to fast loss.
